Laboratory results taken from patent US20180073031A1, “TRANSCRIPTIONAL SENSOR FOR BILE ACIDS IN BACTEROIDES THETAIOTAOMICRON” (priority 2016, published 2018).

Key:
[1] = tested on: bile acid sensor BreR from V. cholerae; type: cell-based; settings: for sensor sensitive to substance (FIG. 4 legend): in vitro functionality; for induction of reporter luminescence by bile acid: strain grown with various concentrations of bile acids, FIGS. 4B-4G; for Sensitivity: BreR bile acid sensor in B. thetaiotaomicron; for Sensitivity / Basal Activity: ± SD; for Basal Activity / Dynamic Range: BreR bile acid sensor; for Basal Activity: basal reporter luminescence; for Dynamic Range: reporter induction
[2] = tested on: VFA0359 from Vibrio fischeri; test: Luciferase assay of bile acid sensor using VFA0359 in B. thetaiotaomicron; type: cell-based; settings: same operator sequence as BreR

Structure (SMILES) | sensor sensitive to substance (FIG. 4 legend) [1] | induction of reporter luminescence by bile acid [1] | relative sensitivity of the sensor among deconjugated bile acids [1] | Sensitivity [1] [Lum/μM*10^−5] | Basal Activity [1] [Lum × 10^4] | Dynamic Range [1] [fold-change] | induced gene expression of the reporter construct [2] [fold]
C[C@H](CCC(=O)NCC(=O)O)[C@H]1CC[C@H]2[C@@H]3[C@H](O)C[C@@H]4C[C@H](O)CC[C@]4(C)[C@H]3C[C@H](O)[C@]12C [GCA, glycocholic acid] | not | does not sense | – | – | – | – | –
C[C@H](CCC(=O)O)[C@H]1CC[C@H]2[C@@H]3[C@H](O)C[C@@H]4C[C@H](O)CC[C@]4(C)[C@H]3CC[C@]12C [CDCA, chenodeoxycholic acid] | sensitive | induced luminescence in a dose dependent manner | moderately sensitive | 2.3 ± 1.1 | 1.9 ± 0.4 | 25.8 ± 11.1 | –
C[C@H](CCC(=O)O)[C@H]1CC[C@H]2[C@@H]3CC[C@@H]4C[C@H](O)CC[C@]4(C)[C@H]3C[C@H](O)[C@]12C [DCA, deoxycholic acid] | – | – | – | 25.8 ± 7.6 | 1.7 ± 0.8 | 71.5 ± 3.4 | ~600
C[C@H](CCC(=O)O)[C@H]1CC[C@H]2[C@@H]3CC[C@@H]4C[C@H](O)CC[C@]4(C)[C@H]3CC[C@]12C [LCA, lithocholic acid] | – | – | – | 1.4 ± 0.8 | 2.2 ± 0.9 | 17.5 ± 4.9 | –
CC(C)CCC[C@@H](C)[C@H]1CC[C@H]2[C@@H]3CC=C4C[C@@H](O)CC[C@]4(C)[C@H]3CC[C@]12C [cholesterol] | not | – | – | – | – | – | –
C[C@H](CCC(=O)NCCS(=O)(=O)O)[C@H]1CC[C@H]2[C@@H]3[C@H](O)C[C@@H]4C[C@H](O)CC[C@]4(C)[C@H]3C[C@H](O)[C@]12C [TCA, taurocholic acid] | not | does not sense | – | – | – | – | –
C[C@H](CCC(=O)O)[C@H]1CC[C@H]2[C@@H]3[C@H](O)C[C@@H]4C[C@H](O)CC[C@]4(C)[C@H]3C[C@H](O)[C@]12C [CA, cholic acid] | sensitive | induced luminescence in a dose dependent manner | least sensitive | 0.8 ± 0.2 | 2.1 ± 0.7 | 18.5 ± 3.8 | –
